# Legend:
# [1] = system: ND7 cells; assay: X-gal histochemistry cell counts, undifferentiated ND7 cells; type: cell-based, rat/mouse
# Method: ND7 neurons were plated in 24 well culture dishes at a density of 4×10^4 cells/well and allowed to grow for 24 hrs. The undifferentiated ND7 neurons were then transfected with either pCMVb alone (A), pCMVb complexed with DC-Chol/DOPE (1/3, w/w) (B) or with pCMVb complexed with Mu1 and DC-Chol/DOPE (1/12/6) (C). Forty-eight hours later the cells were fixed and processed for histochemical detection of X-Gal.
# DNA and liposomes were combined by the addition of 400 μL serum-free differentiation media and gentle shaking. The DNA: liposome mixture was incubated at room temperature for 20 to 30 minutes before being applied to the cells. The DNA/liposome mixture was then applied to the cells and incubated at 37° C., 5% CO2 for 2 hours after which this media was replaced with complete media Twenty four to 48 hours later the cells were fixed and processed for X-gal histochemistry as described ^31 or harvested for β-galactosidase enzyme assays (Promega Corp.).
# Cell counts were performed under ×40 magnification using a Nikon Diaphot inverted microscope. Each transfection was repeated at least three times and at least three separate counts were made for each well.
# The β-galactosidase reporter gene assay provides a measure of the overall level of β-galactosidase produced, but gives no information regarding the number of cells transfected. For this reason, we also performed cell counts on transfected ND7 cells. Cells were seeded at a density of 4×10^4 in 24 well culture plates. After 24 hours the cells were washed briefly in serum-free media and transfected with pCMVβ complexed to DC-Chol/DOPE and Mu1 peptide. The ratios used were those found to be optimal in the reporter gene assay, 1:12:6, pCMVβ:Mu1:DC-Chol/DOPE. Using these ratios, we found a 6-fold increase in the number of β galactosidase positive cells (FIGS. 3 & 6).
# [2] = system: Swiss 3T3 cells; assay: β-galactosidase assay, Mu1 vs protamine in confluent Swiss 3T3 cells; type: cell-based; details: liposome (B198:DOPE 3:2):peptide:DNA 12:0.6:1, final DNA concentration 5.0 μg/l, 1 or 2 h
# Excerpt: Protamine is a naturally occurring cationic peptide abundant in piscine sperm and is potent in neutralising and condensing DNA. The transfection activity of protamine was compared with that of Mu1 peptide. Mu1 peptide or protamine sulfate (Sigma, grade X from Salmon) was complexed with DNA (pCMVβ) and then cationic liposomes (B 198:DOPE in a ratio of 3:2 m/m) giving a liposome:peptide:DNA ratio of 12:0.6:1 (w/w/w).
# The transfection activities were examined in Swiss 3T3 cells. The cells were seeded at an approximate density of 2×10^4 per well in a 24-well culture plate in DMEM supplemented with 10% FCS and grown for 48 h to complete confluence in the presence of 5% CO2 at 37° C. Cells were washed by brief exposure to DMEM and then treated with solutions containing LMD or LD complexes, prediluted with DMEM (final DNA concentration 5.0 μg/l in all cases), for 1 or 2 h. Cells were then washed again and incubated for a further 48 h in DMEM supplemented with 10% FCS prior to harvesting. The level of β-galactosidase enzyme activity was determined with a standard assay kit (Promega).
substance,measurement,setting,value
H-MRRAHHRRRRASHRRMRGG-OH [Mu1],number of X-Gal positive cells (FIG. 3),"[1]; 1/12/6 vs pCMVβ with DC-Chol/DOPE 1/3, 48 h",significantly enhanced the number of X-Gal positive cells
same,increase in the number of β galactosidase positive cells,[1]; 1:12:6 pCMVβ:Mu1:DC-Chol/DOPE,6 fold
same,cell loss,"[1]; Mu1 complex, any of the concentrations utilized",No obvious cell loss
same,transfection compared with complexes comprising protamine,[2],better transfection

# From US20030153081A1, “Viral core protein-cationic lipid-nucleic acid-delivery complexes” (priority 1999, published 2003)
